Source: paper PMC10681007, “Targeted Degradation of XIAP is Sufficient and Specific to Induce Apoptosis in MYCN-overexpressing High-risk Neuroblastoma” (Cancer Research Communications, 2023)
Starred links: 1 amine or outer side, 2 acyl side, 3 side chain; linkers in the order of their positions; H or OH if unused. Positions of bridges follow the written chain, without caps; N, C: chain ends. Non-standard residues stand in square brackets, D forms with d. Residues, ends and D or L forms follow the SMILES beside them. Chains are numbered I, II in the order given. Hexamethylenediamine = C(CCCN[*:2])CCN[*:1]; Dip = N[C@H](C(=O)O)C(c1ccccc1)c1ccccc1; Chg = N[C@H](C(=O)O)C1CCCCC1; NMeA = CN[C@@H](C)C(=O)O

Assays:
Type in all cases: cell-based, Human
XIAP and c-IAP1 = assay: Immunoblot analysis of XIAP and c-IAP1 expression; conditions: 10 µmol/L
Source text: FIGURE 2 Specific loss of XIAP expression, not c-IAP1, is required for mediating apoptosis in high-risk neuroblastoma cells. A, Summary of IAP antagonists’ efficacy in killing neuroblastoma cells. The IAP antagonists were ranked on the basis of the average potency of killing (IC50) and specificity of killing toward only neuroblastoma cells: (i) A4, (ii) B3, (iii) BV6, (iv) LCL161, (v) CUDC-427, (vi) Debio 1143. B, Immunoblot analysis of c-IAP1, XIAP, PARP, and cleaved caspase-3 expression in neuroblastoma cell lines, BE(2)-C and KELLY, and noncancerous normal tissue cell line, HS5, after treatment with 10 µmol/L of either A4, B3, or BV6 at indicated timings (three independent replicates). C, Graphical representation showing the fold change of caspase-3/7 activity relative to vehicle controls after treatment with 10 µmol/L of either A4, B3, or BV6 at indicated timings (data were expressed as mean ± SD of three independent experiments conducted in duplicates; *, P < 0.05). D, Morphology of cells 48 hours posttreatment with 10 µmol/L of either A4, B3, or BV6. […]
Whole cell lysates harvested were lysed in EBC buffer (pH 8.0 of 50 mM Tris, 0.5% NP-40, 120 mM sodium chloride) containing protease inhibitors and protein concentration were quantified using the Bradford assay (Thermo Fisher Scientific). […]

[1] = test system: neuroblastoma cells across the panel of cell lines; assay: Cell viability, IC50 range across the panel; conditions: range over cell lines, doses 0–100 µmol/L, viability every 24 for 72 hours; read-out: IC50 against neuroblastoma cells across the panel of cell lines
Protocol: Cell viability was measured in real time using RealTime-Glo MT Cell Viability Assay as according to manufacturer's instructions from Promega. Cells were seeded at 1 × 10^4 cells per well and treated with a range of doses of indicated antagonists, followed by continuous bioluminescence reading every 24 hours for 3 days using luminescent plate reader, Varioskan ([…] software). IC50 was determined using GraphPad Prism software. To determine their efficacy in neuroblastoma, a panel of neuroblastoma cell lines including neuroblastoma patient-derived cell lines and noncancerous normal tissue-derived cell lines were treated with increasing doses of each antagonist (0-100 μmol/L), followed by real-time measurement of cell viability every 24 for 72 hours. […] Supplementary Table S2; Fig. 2A). […] Fig. 2A).

THLE3 (liver origin) = assay: RealTime-Glo MT cell viability assay, noncancerous normal cells
Protocol: (§1) Cell viability was measured in real time using RealTime-Glo MT Cell Viability Assay as according to manufacturer's instructions from Promega. Cells were seeded at 1 × 10^4 cells per well and treated with a range of doses of indicated antagonists, followed by continuous bioluminescence reading every 24 hours for 3 days using luminescent plate reader, Varioskan (SkanIT software). IC50 was determined using GraphPad Prism software.
(§2) To determine their efficacy in neuroblastoma, a panel of neuroblastoma cell lines including neuroblastoma patient-derived cell lines and noncancerous normal tissue-derived cell lines were treated with increasing doses of each antagonist (0–100 µmol/L), followed by real-time measurement of cell viability every 24 for 72 hours.
(§3) To evaluate this, noncancerous normal tissue-derived cell lines THLE3 and HS5 were utilized to evaluate toxicity and tolerability.

HS5 (bone marrow origin) = assay: as above
Protocol: as §1, §2, §3

SMILES: CN[C@@H](C)C(=O)N[C@H](C(=O)N1CCC[C@H]1C(=O)N[C@H](C(=O)NCCCCCCNC(=O)[C@@H](NC(=O)[C@@H]1CCCN1C(=O)[C@@H](NC(=O)[C@H](C)NC)C1CCCCC1)C(c1ccccc1)c1ccccc1)C(c1ccccc1)c1ccccc1)C1CCCCC1 [BV6] (I: H-[NMeA][Chg]P[Dip] / II: H-[NMeA][Chg]P[Dip]; linker I:C-II:C via Hexamethylenediamine)
- XIAP and c-IAP1 expression (immunoblot) (XIAP and c-IAP1; BE(2)-C and KELLY cells): loss of c-IAP1 expression with no change in XIAP expression
- XIAP and c-IAP1 expression (immunoblot) (XIAP and c-IAP1; HS5 cells): loss of c-IAP1 expression with no changes in XIAP expression
- IC50 [1]: 3 to 20 µM
- IC50 (THLE3 (liver origin); THLE3, 24 hours): 11.3 µM
- IC50 (THLE3 (liver origin); THLE3, 48 hours): 6.8 µM
- IC50 (THLE3 (liver origin); THLE3, 72 hours): 5.2 µM
- IC50 (HS5 (bone marrow origin); HS5, 24 hours): 6.1 µM
- IC50 (HS5 (bone marrow origin); HS5, 48 hours): 4.4 µM
- IC50 (HS5 (bone marrow origin); HS5, 72 hours): 3.6 µM
